Assay results as given in patent US20180305334A1, “COMPOUNDS, COMPOSITIONS AND METHODS OF USE AGAINST STRESS GRANULES” (Aquinnah Pharmaceuticals, Inc., priority 2015, published 2018).

system: TDP-43 aggregation in PC12 cells stably expressing TDP-43^Q331K::eGFP; test: In vitro efficacy assay, TDP-43 aggregation concentration-response; assay type: cell-based; conditions: Rattus norvegicus, PC-12, inhibition of TDP-43 aggregation; PC12 TDP-43^Q331K::eGFP, 1 hour pre-treatment, 15 μM sodium arsenite for 23 hours; 10-point dose response
Protocol: Exemplary compounds of the invention were evaluated for efficacy in inhibiting TDP-43 inclusions using a concentration-response assay. Briefly, PC12 cells stably expressing a GFP-tagged mutant form of TDP-43 (TDP-43^Q331K::eGFP) were pre-treated for 1 hour with exemplary compounds and stressed with 15 μM sodium arsenite for 23 hours to induce TDP-43 aggregation. The inhibitory effect on TDP-43 aggregation was measured using fluorescence microscopy. The ratio of cells with TDP-43 aggregates was calculated based on the total number of cells with detectable GFP expression.

Row | SMILES | IC50 [µM]
1 | CCN(CC1CCN(CC(F)(F)c2cccc(OC)c2)CC1)C(=O)c1cc2ccccc2[nH]1 [Compound 412] | 1.5 to 4
2 | CCN(CC1CCCN(Cc2cccc(OC)c2)C1)C(=O)c1cc2ccccc2[nH]1 (stereo not shown) [compound 122] | < 1.5
3 | CN(CC1CCNCC1)C(=O)c1cc2ccccc2[nH]1 [compound 254] | > 10
4 | CN(CC1CCN(Cc2cccc(Cl)c2)CC1)C(=O)c1cc2ccccc2[nH]1 [compound 256] | > 10
5 | COc1cccc(CN2CCC(CN(C)C(=O)c3cc4ccccc4[nH]3)CC2)c1 [compound 257] | 4 to 7
6 | CN(CC1CCN(Cc2ccccc2F)CC1)C(=O)c1cc2ccccc2[nH]1 [compound 258] | > 10
7 | COc1ccccc1CN1CCC(CN(C)C(=O)c2cc3ccccc3[nH]2)CC1 [compound 260] | 4 to 7
8 | CCN(CC1CCN(Cc2cccc(Cl)c2)CC1)C(=O)c1cc2ccccc2[nH]1 [compound 266] | 4 to 7
9 | CCN(CC1CCN(Cc2ccccc2F)CC1)C(=O)c1cc2ccccc2[nH]1 [compound 268] | 1.5 to 4
10 | CN(CC1CCN(Cc2ccc(F)cc2)CC1)C(=O)c1cc2ccccc2[nH]1 [compound 269] | > 10
11 | O=C(NCC1CCN(Cc2ccccc2F)CC1)c1cc2ccccc2[nH]1 [compound 272] | > 10
12 | COc1ccccc1CN1CCC(CNC(=O)c2cc3ccccc3[nH]2)CC1 [compound 273] | 1.5 to 4
13 | COc1ccc(CN2CCC(CNC(=O)c3cc4ccccc4[nH]3)CC2)cc1 [compound 274] | > 10
14 | CC(C)N(CC1CCN(Cc2ccccc2F)CC1)C(=O)c1cc2ccccc2[nH]1 [compound 280] | > 10
15 | CC(C)N(CC1CCN(Cc2ccccc2Cl)CC1)C(=O)c1cc2ccccc2[nH]1 [compound 281] | > 10
16 | COc1ccccc1CN1CCC(CN(C(=O)c2cc3ccccc3[nH]2)C(C)C)CC1 [compound 282] | > 10

The remaining lines, values ahead:

Row | IC50 [µM] | SMILES
17 | > 10 | CCN(CC1CCCNC1)C(=O)c1cc2ccccc2[nH]1 (stereo not shown) [Compound 413]
18 | 1.5 to 4 | CCN(CC1CCN(CCc2cccc(OC)c2)CC1)C(=O)c1cc2ccccc2[nH]1 [compound 253]
19 | > 10 | CN(CC1CCN(Cc2cccc(F)c2)CC1)C(=O)c1cc2ccccc2[nH]1 [compound 255]
20 | > 10 | CN(CC1CCN(Cc2ccccc2Cl)CC1)C(=O)c1cc2ccccc2[nH]1 [compound 259]
21 | 1.5 to 4 | COc1ccc(CN2CCC(CN(C)C(=O)c3cc4ccccc4[nH]3)CC2)cc1 [compound 261]
22 | > 10 | CN(CC1CCN(Cc2ccc(Cl)cc2)CC1)C(=O)c1cc2ccccc2[nH]1 [compound 262]
23 | > 10 | CN(CC1CCN(Cc2ccccc2)CC1)C(=O)c1cc2ccccc2[nH]1 [compound 263]
24 | < 1.5 | COc1ccc(CN2CCC(CN(C(=O)c3cc4ccccc4[nH]3)C(C)C)CC2)cc1 [compound 265]
25 | 1.5 to 4 | CCN(CC1CCN(Cc2cccc(OC)c2)CC1)C(=O)c1cc2ccccc2[nH]1 [compound 267]
26 | > 10 | O=C(NCC1CCN(Cc2cccc(F)c2)CC1)c1cc2ccccc2[nH]1 [compound 270]
27 | < 1.5 | O=C(NCC1CCN(Cc2cccc(Cl)c2)CC1)c1cc2ccccc2[nH]1 [compound 271]
28 | > 10 | O=C(NCC1CCN(Cc2ccc(Cl)cc2)CC1)c1cc2ccccc2[nH]1 [compound 275]
29 | > 10 | CC(C)N(CC1CCNCC1)C(=O)c1cc2ccccc2[nH]1 [compound 276]
30 | > 10 | CC(C)N(CC1CCN(Cc2cccc(F)c2)CC1)C(=O)c1cc2ccccc2[nH]1 [compound 277]
31 | 4 to 7 | CC(C)N(CC1CCN(Cc2cccc(Cl)c2)CC1)C(=O)c1cc2ccccc2[nH]1 [compound 278]
32 | > 10 | COc1cccc(CN2CCC(CN(C(=O)c3cc4ccccc4[nH]3)C(C)C)CC2)c1 [compound 279]
33 | > 10 | CC(C)N(CC1CCN(Cc2ccc(Cl)cc2)CC1)C(=O)c1cc2ccccc2[nH]1 [compound 283]
34 | > 10 | CC(C)N(CC1CCN(Cc2ccc(F)cc2)CC1)C(=O)c1cc2ccccc2[nH]1 [compound 284]
